For test [1], the system named is C-myc in KMS.12.BM cells. The test can be described thus: KMS.12.BM C-myc ELISA Assay. Type of test: cell-based. Particulars: Homo sapiens, 2 h. The protocol: KMS.12.BM C-myc ELISA Assay
KMS.12.BM cell line (human myeloma) was purchased from JCRB (Osaka, Japan) and maintained in RPMI with 10% FBS culture medium. To measure the C-myc inhibitory activity of the compounds, the KMS.12.BM cells are plated in the RPMI culture medium at 75000 cells/well/per 200 μL into a 96-well flat bottom polystyrene tissue culture plate (Corning through VWR, NJ), in the presence or absence of a concentration range of test compounds. After 2 h, cells are pelleted and lysed with Cell Extraction Buffer (BioSource, Carlsbad, Calif.) in the presence of protease inhibitors (Life Technologies, Grand Island, N.Y. and Sigma, St Louis, Mo.). Clarified lyses are tested in a C-myc commercial ELISA (Life Technologies, Grand Island, N.Y.). Compound inhibition is determined relative to cells cultured with no drug and the IC50 reported as the compound concentration required for 50% C-myc inhibition.
Background: In an ELISA, binding on a coated surface is turned into a signal by an enzyme label.

Test [2] deals with KMS.12.BM cell line (human myeloma). Briefly: KMS.12.BM Cell Viability Assay. Type of test: cell-based. Conditions: 72 h, KMS.12.BM cells, 3 days, Cell Titer-GLO, read-out: KMS cellular IC50. Here is the method: Example B1: KMS.12.BM Cell Viability Assay
KMS.12.BM cell line (human myeloma) was purchased from JCRB (Osaka, Japan) and maintained in RPMI with 10% FBS culture medium. To measure the cytotoxic activity of the compounds through ATP quantitation, the KMS.12.BM cells are plated in the RPMI culture medium at 5000 cells/well/per 100 μL into a 96-well polystyrene clear black tissue culture plate (Greiner-bio-one through VWR, NJ), in the presence or absence of a concentration range of test compounds. After 3 days, […] Cell Titer-GLO Luminescent (Promega, Madison, Wis.) cell culture agent is added to each well for 10 min. at room temperature to stabilize the luminescent signal. This determines the number of viable cells in culture based on quantitation of the ATP present, which signals the presence of metabolically active cells. Luminescence is measured with the Top Count 384 (Packard Bioscience through Perkin Elmer, Boston, Mass.). Compound inhibition is determined relative to cells cultured with no drug and the IC50 reported as the compound concentration required for 50% cell death.
In general terms: ATP-based viability assays read luminescence as a measure of living cells.

In general, IC50 refers to the concentration that inhibits the measured activity by half.

Turning to `CCCC(=O)NC1CCN(c2nc3ccc(-c4c(C)noc4C)c4c3n2[C@@H](c2ccccn2)CO4)CC1` [Example 10, N-{1-[(4S)-7-(3,5-dimethylisoxazol-4-yl)-4-pyridin-2-yl-4,5-dihydroimidazo[1,5,4-de][1,4]benzoxazin-2-yl]piperidin-4-yl}butanamide], the IC50 in test [1] and in test [2] was not above 100 nM each time.
Consider `Cc1noc(C)c1-c1ccc2nc(N3CCN(C(=O)C(C)C)CC3)n3c2c1OC[C@@H]3c1ccccn1` [Example 1, (4S)-7-(3,5-Dimethylisoxazol-4-yl)-2-(4-isobutyrylpiperazin-1-yl)-4-pyridin-2-yl-4,5-dihydroimidazo[1,5,4-de][1,4]benzoxazine], for which the IC50 in test [1] and in test [2] was not above 100 nM in each case.
In the case of `CC(=O)N1CCN(c2nc3ccc(-c4c(C)noc4C)c4c3n2[C@@H](c2ccccn2)CO4)C[C@@H]1C` [Example 7, (4S)-2-[(3S)-4-acetyl-3-methylpiperazin-1-yl]-7-(3,5-dimethylisoxazol-4-yl)-4-pyridin-2-yl-4,5-dihydroimidazo[1,5,4-de][1,4]benzoxazine], the IC50 in test [1] and in test [2] was not above 100 nM throughout.
In the case of `CCC(=O)N1CCN(c2nc3ccc(-c4c(C)noc4C)c4c3n2[C@@H](c2ccccn2)CO4)C[C@@H]1C` [Example 8, (4S)-7-(3,5-dimethylisoxazol-4-yl)-2-[(3S)-3-methyl-4-propionylpiperazin-1-yl]-4-pyridin-2-yl-4,5-dihydroimidazo[1,5,4-de][1,4]benzoxazine], the IC50 in test [1] and in test [2] was not above 100 nM throughout.
`Cc1noc(C)c1-c1ccc2nc(N3CCC(NC(=O)C4CC4)CC3)n3c2c1OC[C@@H]3c1ccccn1` [Example 12]: the IC50 in test [1] and in test [2] was not above 100 nM in each case.
As for `Cc1noc(C)c1-c1ccc2nc(N3CCC(N(C)C(=O)N(C)C)CC3)n3c2c1OC[C@@H]3c1ccccn1` [Example 21, N-{1-[(4S)-7-(3,5-dimethylisoxazol-4-yl)-4-pyridin-2-yl-4,5-dihydroimidazo[1,5,4-de][1,4]benzoxazin-2-yl]piperidin-4-yl}-N,N′,N′-trimethylurea], the IC50 in test [1] and in test [2] was not above 100 nM in each case.
Turning to `COCC(=O)N1CCN(c2nc3ccc(-c4c(C)noc4C)c4c3n2[C@@H](c2ccccn2)CO4)CC1` [Example 29, (4S)-7-(3,5-dimethylisoxazol-4-yl)-2-[4-(methoxyacetyl)piperazin-1-yl]-4-pyridin-2-yl-4,5-dihydroimidazo[1,5,4-de][1,4]benzoxazine], the IC50 in test [1] and in test [2] was not above 100 nM throughout.
As for `Cc1noc(C)c1-c1ccc2nc(N3CCC(N(C)C(=O)C(C)(C)C)CC3)n3c2c1OC[C@@H]3c1ccccn1` [Example 18, N-{1-[(4S)-7-(3,5-dimethylisoxazol-4-yl)-4-pyridin-2-yl-4,5-dihydroimidazo[1,5,4-de][1,4]benzoxazin-2-yl]piperidin-4-yl}-N,2,2-trimethylpropanamide], the IC50 in test [1] and in test [2] was not above 100 nM each time.
`CCCC(=O)N1CCN(c2nc3ccc(-c4c(C)noc4C)c4c3n2[C@@H](c2ccccn2)CO4)CC1` [Example 25, (4S)-2-(4-butyrylpiperazin-1-yl)-7-(3,5-dimethylisoxazol-4-yl)-4-pyridin-2-yl-4,5-dihydroimidazo[1,5,4-de][1,4]benzoxazine]: the IC50 in test [1] and in test [2] was not above 100 nM throughout.
On to `Cc1noc(C)c1-c1ccc2nc(N3CCN(C(=O)C4CCC4)CC3)n3c2c1OC[C@@H]3c1ccccn1` [Example 28, (4S)-2-[4-(cyclobutylcarbonyl)piperazin-1-yl]-7-(3,5-dimethylisoxazol-4-yl)-4-pyridin-2-yl-4,5-dihydroimidazo[1,5,4-de][1,4]benzoxazine], for which the IC50 in test [1] was 100 to 1000 nM; in test [2], not above 100 nM.
In the case of `Cc1noc(C)c1-c1ccc2nc(N3CCC(N(C)C(=O)C4CC4)CC3)n3c2c1OC[C@@H]3c1ccccn1` [Example 19, N-{1-[(4S)-7-(3,5-dimelhylisoxazol-4-yl)-4-pyridin-2-yl-4,5-dihydroimidazo[1,5,4-de][1,4]benzoxazin-2-yl]piperidin-4-yl}-N-methylcyclopropanecarboxamide], the IC50 in test [1] and in test [2] was not above 100 nM in each case.
For the molecule `Cc1noc(C)c1-c1ccc2nc(N3CCC(N(C)S(=O)(=O)C4CC4)CC3)n3c2c1OC[C@@H]3c1ccccn1` [Example 24, N-{1-[(4S)-7-(3,5-dimethylisoxazol-4-yl)-4-pyridin-2-yl-4,5-dihydroimidazo[1,5,4-de][1,4]benzoxazin-2-yl]piperidin-4-yl}-N-methylcyclopropanesulfonamide], the IC50 in test [1] and in test [2] was not above 100 nM each time.
Turning to `Cc1noc(C)c1-c1ccc2nc(N3CCN(C(=O)C(C)C)[C@@H](C)C3)n3c2c1OC[C@@H]3c1ccccn1` [Example 9, (4S)-7-(3,5-dimethylisoxazol-4-yl)-2-[(3S)-4-isobutyryl-3-methylpiperazin-1-yl]-4-pyridin-2-yl-4,5-dihydroimidazo[1,5,4-de][1,4]benzoxazine], the IC50 in test [1] and in test [2] was not above 100 nM each time.
Take `CCS(=O)(=O)N(C)C1CCN(c2nc3ccc(-c4c(C)noc4C)c4c3n2[C@@H](c2ccccn2)CO4)CC1` [Example 23, N-{1-[(4S)-7-(3,5-dimethylisoxazol-4-yl)-4-pyridin-2-yl-4,5-dihydroimidazo[1,5,4-de][1,4]benzoxazin-2-yl]piperidin-4-yl}-N-methylethanesulfonamide]: the values for the IC50 in test [1] and in test [2] were 100 to 1000 nM and not above 100 nM, respectively.
Consider `CC(=O)N1CCN(c2nc3ccc(-c4c(C)noc4C)c4c3n2[C@@H](c2ccccn2)CO4)[C@@H](C)C1` [Example 3, (4S)-2-[(2S)-4-acetyl-2-methylpiperazin-1-yl]-7-(3,5-dimethylisoxazol-4-yl)-4-pyridin-2-yl-4,5-dihydroimidazo[1,5,4-de][1,4]benzoxazine], for which the IC50 in test [1] and in test [2] was not above 100 nM each time.
Regarding `CC(=O)N1C[C@@H](C)N(c2nc3ccc(-c4c(C)noc4C)c4c3n2[C@@H](c2ccccn2)CO4)[C@@H](C)C1` (atropisomer, axis not shown) [Example 2, (4S)-2-[(2R,6S)-4-Acetyl-2,6-dimethylpiperazin-1-yl]-7-(3,5-dimethylisoxazol-4-yl)-4-pyridin-2-yl-4,5-dihydroimidazo[1,5,4-de][1,4]benzoxazine], the half-maximal inhibitory concentration (IC50) in test [1] and in test [2] was not above 100 nM each time.
Take `Cc1noc(C)c1-c1ccc2nc(N3CCC(N(C)C(=O)C(C)C)CC3)n3c2c1OC[C@@H]3c1ccccn1` [Example 17, N-{1-[(4S)-7-(3,5-dimethylisoxazol-4-yl)-4-pyridin-2-yl-4,5-dihydroimidazo[1,5,4-de][1,4]benzoxazin-2-yl]piperidin-4-yl}-N,2-dimethylpropanamide]: the IC50 in test [1] and in test [2] was not above 100 nM throughout.
Consider `CC(=O)N1CC2CC1CN2c1nc2ccc(-c3c(C)noc3C)c3c2n1[C@@H](c1ccccn1)CO3` (stereo partly drawn) [Example 4, (4S)-2-(5-acetyl-2,5-diazabicyclo[2.2.1]hept-2-yl)-7-(3,5-dimethylisoxazol-4-yl)-4-pyridin-2-yl-4,5-dihydroimidazo[1,5,4-de][1,4]benzoxazine], for which the IC50 in test [1] and in test [2] was not above 100 nM each time.
Regarding `CCS(=O)(=O)NC1CCN(c2nc3ccc(-c4c(C)noc4C)c4c3n2[C@@H](c2ccccn2)CO4)CC1` [Example 14, N-{1-[(4S)-7-(3,5-dimethylisoxazol-4-yl)-4-pyridin-2-yl-4,5-dihydroimidazo[1,5,4-de][1,4]benzoxazin-2-yl]piperidin-4-yl}ethanesulfonamide], the IC50 in test [1] and in test [2] was not above 100 nM in each case.
Take `Cc1noc(C)c1-c1ccc2nc(N3CCN(C(=O)C4CC4)CC3)n3c2c1OC[C@@H]3c1ccccn1` [Example 27, (4S)-2-[4-(cyclopropylcarbonyl)piperazin-1-yl]-7-(3,5-dimcthylisoxazol-4-yl)-4-pyridin-2-yl-4,5-dihydroimidazo[1,5,4-de][1,4]benzoxazine]: the IC50 in test [1] and in test [2] was not above 100 nM in each case.
For `CC(=O)N(C)C1CCN(c2nc3ccc(-c4c(C)noc4C)c4c3n2[C@@H](c2ccccn2)CO4)CC1` [Example 6, N-{1-[(4S)-7-(3,5-dimethylisoxazol-4-yl)-4-pyridin-2-yl-4,5-dihydroimidazo[1,5,4-de][1,4]benzoxazin-2-yl]piperidin-4-yl}-N-methylacetamide], the IC50 in test [1] and in test [2] was not above 100 nM throughout.
As to `CCCC(=O)N(C)C1CCN(c2nc3ccc(-c4c(C)noc4C)c4c3n2[C@@H](c2ccccn2)CO4)CC1` [Example 16, N-{1-[(4S)-7-(3,5-dimethylisoxazol-4-yl)-4-pyridin-2-yl-4,5-dihydroimidazo[1,5,4-de][1,4]benzoxazin-2-yl]piperidin-4-yl}-N-methylbutanamide], the IC50 in test [1] and in test [2] was not above 100 nM in each case.
